Measurements from paper PMC9857510, “Identification of Immune-Active Peptides in Casein Hydrolysates and Its Transport Mechanism on a Caco-2 Monolayer” (Foods, 2023).
Where two headings read alike, the source gives them in different places. Residues, ends and D or L forms follow the SMILES beside them. No end group written: not given here.

Assays:
Caco-2 cell monolayer [1] = assay: Peptide efflux: sodium azide pre-incubation (ATP production); format: in vitro ADME, human; conditions: 10 mM sodium azide, AP-BL, 2 h, vs blank
Method: (§1) In total, 0.5 mL of 0.05 mM MK-571 sodium salt, 0.1 mM verapamil, and 10 mM sodium azide were added to the AP side hole of the Transwell plate and incubated in a CO2 incubator for 30 min. After this incubation, the compounds were removed, the peptide was added to the AP side, and HBSS buffer was added to the BL side for 2 h.

P-glycoprotein = molecular target: T1, P-glycoprotein (Homo sapiens, UniProt P08183); assay: Peptide efflux: verapamil pre-incubation; format: in vitro ADME; conditions: 0.1 mM verapamil, AP-BL, 2 h, vs blank
T1 construct: Multidrug resistance protein (MRP) and P-glycoprotein in Caco-2 cells are energy-dependent efflux transporters; endogenous in cells; host or cells: Caco-2
T1 sequence (P08183 whole entry): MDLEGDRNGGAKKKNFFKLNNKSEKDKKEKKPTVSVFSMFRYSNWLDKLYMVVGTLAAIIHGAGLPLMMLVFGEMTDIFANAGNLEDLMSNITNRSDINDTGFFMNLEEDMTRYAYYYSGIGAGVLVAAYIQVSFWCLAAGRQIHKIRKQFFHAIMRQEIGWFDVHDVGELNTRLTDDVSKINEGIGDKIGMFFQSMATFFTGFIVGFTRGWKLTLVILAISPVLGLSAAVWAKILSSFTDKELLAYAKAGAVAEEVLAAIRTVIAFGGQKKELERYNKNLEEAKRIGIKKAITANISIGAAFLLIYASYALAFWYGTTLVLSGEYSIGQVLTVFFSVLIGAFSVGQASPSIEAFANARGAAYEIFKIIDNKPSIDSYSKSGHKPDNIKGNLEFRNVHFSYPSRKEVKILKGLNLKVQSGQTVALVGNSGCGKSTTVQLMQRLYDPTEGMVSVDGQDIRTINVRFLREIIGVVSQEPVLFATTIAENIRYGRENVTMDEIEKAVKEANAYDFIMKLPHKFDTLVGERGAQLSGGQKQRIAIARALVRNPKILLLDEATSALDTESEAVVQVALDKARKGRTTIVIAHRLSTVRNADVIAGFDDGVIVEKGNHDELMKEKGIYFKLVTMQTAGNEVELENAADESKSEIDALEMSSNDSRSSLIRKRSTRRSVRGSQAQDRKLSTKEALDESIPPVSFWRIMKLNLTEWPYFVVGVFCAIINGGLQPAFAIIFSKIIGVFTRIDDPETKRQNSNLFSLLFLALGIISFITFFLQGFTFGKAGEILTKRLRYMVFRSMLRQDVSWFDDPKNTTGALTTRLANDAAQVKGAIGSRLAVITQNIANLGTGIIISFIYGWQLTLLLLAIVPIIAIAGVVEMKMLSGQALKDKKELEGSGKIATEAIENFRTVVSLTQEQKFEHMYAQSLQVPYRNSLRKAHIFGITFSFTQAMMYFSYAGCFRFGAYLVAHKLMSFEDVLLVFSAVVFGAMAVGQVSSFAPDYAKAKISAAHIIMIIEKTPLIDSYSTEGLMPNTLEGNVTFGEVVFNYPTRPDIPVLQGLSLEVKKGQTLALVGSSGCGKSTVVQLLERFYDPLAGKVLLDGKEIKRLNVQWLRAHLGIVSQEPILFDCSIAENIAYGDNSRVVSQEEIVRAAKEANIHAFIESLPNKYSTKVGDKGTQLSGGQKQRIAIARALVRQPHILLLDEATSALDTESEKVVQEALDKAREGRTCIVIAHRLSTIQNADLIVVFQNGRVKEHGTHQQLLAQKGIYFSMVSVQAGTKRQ
Method: as §1

[2] = molecular target: T2, Peptide transporter 1 (Pep T1) (Homo sapiens, UniProt P46059); assay: Absorption mechanism: Gly-Pro pre-incubation (carrier transport); format: in vitro ADME; conditions: 10 mM Gly-Pro, 30 min pre-incubation, 2 h transport, vs blank
T2 construct: endogenous in cells; host or cells: Caco-2
T2 sequence (P46059 1-708): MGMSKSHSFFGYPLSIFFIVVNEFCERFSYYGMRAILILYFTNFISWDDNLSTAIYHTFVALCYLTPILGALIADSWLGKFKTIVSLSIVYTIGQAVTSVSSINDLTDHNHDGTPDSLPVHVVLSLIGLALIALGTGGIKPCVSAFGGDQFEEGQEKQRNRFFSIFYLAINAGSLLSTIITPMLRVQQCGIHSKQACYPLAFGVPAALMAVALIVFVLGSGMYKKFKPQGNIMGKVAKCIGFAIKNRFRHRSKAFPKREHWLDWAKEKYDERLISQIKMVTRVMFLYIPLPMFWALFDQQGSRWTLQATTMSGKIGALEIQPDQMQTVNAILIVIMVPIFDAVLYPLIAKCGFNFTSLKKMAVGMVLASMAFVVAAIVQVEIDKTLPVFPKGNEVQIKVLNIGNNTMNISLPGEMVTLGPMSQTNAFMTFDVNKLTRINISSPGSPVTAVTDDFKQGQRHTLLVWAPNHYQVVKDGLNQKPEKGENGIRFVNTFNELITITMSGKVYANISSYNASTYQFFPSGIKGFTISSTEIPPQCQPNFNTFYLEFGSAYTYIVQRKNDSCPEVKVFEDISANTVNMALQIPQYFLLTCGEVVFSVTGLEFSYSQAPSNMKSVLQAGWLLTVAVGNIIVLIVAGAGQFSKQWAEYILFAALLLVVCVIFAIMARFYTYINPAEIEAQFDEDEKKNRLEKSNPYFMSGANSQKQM
Method: (§2) After 0.5 mL of 10 mM Gly-Pro, 0.1 mM sodium deoxycholate and 0.025 mM phenylarsine oxide were added to different wells on the AP side, and the Transwell plates were incubated in a CO2 incubator for 30 min and followed by the removal of these compounds. The peptides were then added to the AP side, and Hank’s Balanced Salt Solution (HBSS) buffer was added to the BL side, and samples were collected after 2 h.

MRP2 = molecular target: T3, MRP2 (Homo sapiens, UniProt Q92887); assay: Peptide efflux: MK-571 sodium salt pre-incubation; format: in vitro ADME; conditions: 0.05 mM MK-571 sodium salt, AP-BL, 2 h, vs blank
T3 construct: Multidrug resistance protein (MRP) and P-glycoprotein in Caco-2 cells are energy-dependent efflux transporters; endogenous in cells; host or cells: Caco-2
T3 sequence (Q92887 whole entry): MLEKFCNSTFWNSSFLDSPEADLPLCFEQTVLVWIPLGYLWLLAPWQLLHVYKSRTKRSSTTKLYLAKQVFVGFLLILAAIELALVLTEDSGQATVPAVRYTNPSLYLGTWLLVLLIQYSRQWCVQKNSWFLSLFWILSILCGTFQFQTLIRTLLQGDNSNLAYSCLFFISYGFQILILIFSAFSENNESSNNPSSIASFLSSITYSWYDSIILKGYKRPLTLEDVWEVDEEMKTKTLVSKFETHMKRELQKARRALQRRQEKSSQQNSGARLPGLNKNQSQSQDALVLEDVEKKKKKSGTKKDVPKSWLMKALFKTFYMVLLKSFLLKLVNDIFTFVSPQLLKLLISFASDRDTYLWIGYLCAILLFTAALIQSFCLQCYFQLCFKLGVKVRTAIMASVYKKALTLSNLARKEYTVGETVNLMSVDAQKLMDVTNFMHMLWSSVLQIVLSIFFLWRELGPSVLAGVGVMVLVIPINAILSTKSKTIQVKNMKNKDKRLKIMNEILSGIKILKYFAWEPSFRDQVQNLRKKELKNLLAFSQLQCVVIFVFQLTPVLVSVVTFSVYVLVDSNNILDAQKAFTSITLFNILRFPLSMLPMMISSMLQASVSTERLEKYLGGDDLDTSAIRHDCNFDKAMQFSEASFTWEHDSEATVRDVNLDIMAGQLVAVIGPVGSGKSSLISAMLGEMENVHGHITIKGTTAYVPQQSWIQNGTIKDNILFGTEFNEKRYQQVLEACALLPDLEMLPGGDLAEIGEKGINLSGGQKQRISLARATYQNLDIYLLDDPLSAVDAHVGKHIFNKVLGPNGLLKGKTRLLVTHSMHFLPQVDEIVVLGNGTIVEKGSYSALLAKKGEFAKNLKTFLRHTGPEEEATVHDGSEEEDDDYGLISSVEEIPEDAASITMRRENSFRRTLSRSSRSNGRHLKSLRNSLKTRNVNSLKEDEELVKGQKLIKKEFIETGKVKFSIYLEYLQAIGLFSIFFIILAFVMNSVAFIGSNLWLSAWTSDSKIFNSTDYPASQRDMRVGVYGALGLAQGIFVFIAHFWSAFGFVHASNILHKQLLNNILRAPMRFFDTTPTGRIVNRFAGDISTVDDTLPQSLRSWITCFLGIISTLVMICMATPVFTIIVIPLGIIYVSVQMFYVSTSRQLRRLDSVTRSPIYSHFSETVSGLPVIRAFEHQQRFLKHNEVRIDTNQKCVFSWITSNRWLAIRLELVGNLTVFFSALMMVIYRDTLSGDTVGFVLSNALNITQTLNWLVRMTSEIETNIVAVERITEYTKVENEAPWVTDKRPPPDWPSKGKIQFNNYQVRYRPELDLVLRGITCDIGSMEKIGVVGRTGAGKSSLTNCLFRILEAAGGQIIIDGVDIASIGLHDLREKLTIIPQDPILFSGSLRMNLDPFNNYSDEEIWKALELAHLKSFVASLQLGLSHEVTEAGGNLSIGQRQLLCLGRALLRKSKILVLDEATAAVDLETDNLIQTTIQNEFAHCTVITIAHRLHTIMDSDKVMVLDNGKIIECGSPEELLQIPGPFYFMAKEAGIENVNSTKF
Method: as §1

Caco-2 cell monolayer [3] = assay: Absorption mechanism: phenylarsine oxide (endocytosis) and sodium deoxycholate (bypass transport) pre-incubation; format: in vitro ADME, human
Method: as §2

Caco-2 cell monolayer [4] = assay: Transport assay on Caco-2 cell monolayer (Transwell, RP-HPLC quantification)
Method: (§3) Reverse phase high-performance liquid chromatography (RP-HPLC) was used to analyze the composition of peptides passed through the Caco-2 cell membrane. The elution parameters were as follows: the mobile phase B was ultra-pure water containing 0.1% Trifluoroacetic acid (TFA), and mobile phase A contained acetonitrile supplemented with 0.1% TFA. Adopting a gradient elution method, in detail, at 0.01 min, mobile phase A was 5%; at 25 min, mobile phase A was 70%. The absorbance of RP-HPLC was detected at 220 nm. The peak yields of the five electroactive peptides at the concentrations of 0.5 mM, 0.2 mM, 0.1 mM, 0.05 mM, and 0.025 mM were detected. The concentration was set as the abscissa and the peak area was set as the ordinate to draw the standard curves of the different peptide segments.
(§4) Caco-2 cells were maintained in an incubator at 37 °C, with 5% CO2 and relative humidity of 90% until the number of cells accounted for 80–90% of confluency [19]. After that, the medium was added to obtain a cellular suspension with 4 × 10^5 cells/mL, which was seeded on a 12-well Transwell plate added to the AP side of the 0.5 mL cell suspension, and the Basal lateral (BL) side by adding 1.5 mL of cell culture medium after one day after the exchange, Then, the fluid was changed every other day for 6 days, and the fluid was changed every day until the culture was completed. […] The main detection indicators were: (1) cell morphology observation; (2) the cell membrane compactness using fluorescent yellow test; (3) the detection of single-cell membrane resistance [20]; (4) alkaline phosphatase activities at the top and the basal side of the cell membrane were detected respectively to preliminarily determine the polarity of it.
(§5) The Papp formula of fluorescence is as follows:(2) Papp=dQ/dt/A×C0 where: C0—Initial concentration of fluorescent yellow (mg/mL); A—Membrane surface area (cm^2); dQ/dt—Transport of fluorescent yellow per unit time; Papp—Apparent permeability coefficient.

in vitro = conditions: human, Caco-2, pH 7.4
Method: as §3, §4, §5

Caco-2 cell monolayer [5] = assay: Integrity of peptides after passing the Caco-2 monolayer (RP-HPLC, LC-MS/MS); format: in vitro ADME, human; conditions: for integrity of the peptide after passing through the Caco-2 cell membrane: RP-HPLC and LC/MS of BL-side liquid; for Concentration (ppm): peptide and fragments found by LC-MS in the liquid that passed the membrane, parents RYPLGYL, KHPIK, FFSDK
Caco-2 cell monolayer [6] = system: Caco-2 cell monolayer
Method: as §3, §4, §5

N[C@@H](Cc1ccc(O)cc1)C(=O)NCC(=O)NCC(=O)O [YGG, Tyr-Gly-Gly] (H-Tyr-Gly-Gly-OH; N-terminus and C-terminus assumed)
effect of sodium azide on concentration on the BL side (Caco-2 cell monolayer [1]): slightly higher | effect of verapamil on transmembrane transport (P-glycoprotein): significantly promote | effect of Gly-Pro on transport to the BL side [2]: no significant differences | effect of MK-571 sodium salt on transmembrane transport (MRP2): no significant differences | main transport mechanism in intestinal epithelial cells (Caco-2 cell monolayer [3]; Caco-2 monolayer): bypass diffusion

NNC(=O)NN1C(=O)c2cc(S(=O)(=O)[O-])cc3c(N)c(S(=O)(=O)[O-])cc(c23)C1=O.[Li+].[Li+] [fluorescence yellow]
Papp of fluorescence yellow (Caco-2 cell monolayer [4]; Caco-2 monolayer density check): 0.607 ×10⁻⁶ cm/s | increase of transmittance (Caco-2 cell monolayer [4]; experimental group (Caco-2 monolayer), from 0.5 h to 2.5 h): 1.6%

FFSDK [FFSDK, Phe-Phe-Ser-Asp-Lys]
Papp A→B at 2 h, 5 mM (in vitro): 0.491 ×10⁻⁶ cm/s | integrity of the peptide after passing through the Caco-2 cell membrane (Caco-2 cell monolayer [5]): Most of the KHPIK and FFSDK were hydrolyzed into KHP and FFS | Concentration (ppm) (Caco-2 cell monolayer [5]): 2.59 ppm | main transport mechanism in intestinal epithelial cells (Caco-2 cell monolayer [3]): bypass diffusion

KHPIK [KHPIK, Lys-His-Pro-Ile- Lys]
Papp A→B at 2 h, 5 mM (in vitro): 0.322 ×10⁻⁶ cm/s | integrity of the peptide after passing through the Caco-2 cell membrane (Caco-2 cell monolayer [5]): Most of the KHPIK and FFSDK were hydrolyzed into KHP and FFS | Concentration (ppm) (Caco-2 cell monolayer [5]): 2.59 ppm | main transport mechanism in intestinal epithelial cells (Caco-2 cell monolayer [3]): bypass diffusion | amount across the membrane versus time (Caco-2 cell monolayer [6]; Caco-2): increased slowly | amount transported versus time (Caco-2 cell monolayer [6]; Caco-2): increased rapidly | transport quantity BL-AP side compared with AP-BL side (Caco-2 cell monolayer [6]; Caco-2): significantly lower | transmembrane transport capacity on the BL side (Caco-2 cell monolayer [6]; Caco-2, pH 6): 23.14 µM | transmembrane transport capacity on the BL side (Caco-2 cell monolayer [6]; Caco-2, pH 7): greater than 30.01 μM | transmembrane transport capacity on the BL side (Caco-2 cell monolayer [6]; Caco-2, pH 7.4): 44.35 µM

KHPIKH [KHPIKH, Lys-His-Pro-Ile-Lys-His]
Papp A→B at 2 h, 5 mM (in vitro): 0.26 ×10⁻⁶ cm/s | main transport mechanism in intestinal epithelial cells (Caco-2 cell monolayer [3]): bypass diffusion

RYPLGYL [RYPLGYL, Arg-Tyr-Pro-Leu-Gly-Tyr-Leu]
Papp A→B at 2 h, 5 mM (in vitro): 0.161 ×10⁻⁶ cm/s | integrity of the peptide after passing through the Caco-2 cell membrane (Caco-2 cell monolayer [5]): resistant to the enzymatic hydrolysis of intestinal epithelial cells | Concentration (ppm) (Caco-2 cell monolayer [5]): 10.74 ppm | main transport mechanism in intestinal epithelial cells (Caco-2 cell monolayer [3]): bypass diffusion
